Assays:
[1] = target: Dual specificity mitogen-activated protein kinase kinase 4 (Homo sapiens) (UniProt P45985); settings: Compound concentration 1000.0 nM
[2] = target: Serine/threonine-protein kinase DCLK1 (Homo sapiens) (UniProt O15075); settings: Compound concentration 1000.0 nM
[3] = tested on: ALK tyrosine kinase receptor (Homo sapiens), Q9UM73 [L1196M]; settings: Compound concentration 1000.0 nM
[4] = target: Cyclin-dependent kinase 4 (Homo sapiens) (UniProt P11802); settings: Compound concentration 1000.0 nM
[5] = tested on: Epidermal growth factor receptor (Homo sapiens), P00533 [UNDEFINED MUTATION]; settings: Compound concentration 1000.0 nM
[6] = tested on: Mast/stem cell growth factor receptor Kit (Homo sapiens), P10721 [V559D,V654A]; settings: Compound concentration 1000.0 nM
[7] = target: Activin receptor type-1-like (Homo sapiens) (UniProt P37023); settings: Compound concentration 1000.0 nM
[8] = target: Mu-type opioid receptor (Homo sapiens) (UniProt P35372); settings: Compound concentration 10.0 uM
[9] = target: Casein kinase I isoform delta (Homo sapiens) (UniProt P48730); settings: Compound concentration 1000.0 nM
[10] = target: Myosin light chain kinase, smooth muscle (Homo sapiens) (UniProt Q15746); settings: Compound concentration 1000.0 nM
[11] = tested on: Mast/stem cell growth factor receptor Kit (Homo sapiens), P10721 [L576P]; settings: Compound concentration 1000.0 nM
[12] = target: Serine/threonine-protein kinase ULK2 (Homo sapiens) (UniProt Q8IYT8); settings: Compound concentration 1000.0 nM
Chain of Serine/threonine-protein kinase ULK2 (Homo sapiens) (Q8IYT8 whole entry): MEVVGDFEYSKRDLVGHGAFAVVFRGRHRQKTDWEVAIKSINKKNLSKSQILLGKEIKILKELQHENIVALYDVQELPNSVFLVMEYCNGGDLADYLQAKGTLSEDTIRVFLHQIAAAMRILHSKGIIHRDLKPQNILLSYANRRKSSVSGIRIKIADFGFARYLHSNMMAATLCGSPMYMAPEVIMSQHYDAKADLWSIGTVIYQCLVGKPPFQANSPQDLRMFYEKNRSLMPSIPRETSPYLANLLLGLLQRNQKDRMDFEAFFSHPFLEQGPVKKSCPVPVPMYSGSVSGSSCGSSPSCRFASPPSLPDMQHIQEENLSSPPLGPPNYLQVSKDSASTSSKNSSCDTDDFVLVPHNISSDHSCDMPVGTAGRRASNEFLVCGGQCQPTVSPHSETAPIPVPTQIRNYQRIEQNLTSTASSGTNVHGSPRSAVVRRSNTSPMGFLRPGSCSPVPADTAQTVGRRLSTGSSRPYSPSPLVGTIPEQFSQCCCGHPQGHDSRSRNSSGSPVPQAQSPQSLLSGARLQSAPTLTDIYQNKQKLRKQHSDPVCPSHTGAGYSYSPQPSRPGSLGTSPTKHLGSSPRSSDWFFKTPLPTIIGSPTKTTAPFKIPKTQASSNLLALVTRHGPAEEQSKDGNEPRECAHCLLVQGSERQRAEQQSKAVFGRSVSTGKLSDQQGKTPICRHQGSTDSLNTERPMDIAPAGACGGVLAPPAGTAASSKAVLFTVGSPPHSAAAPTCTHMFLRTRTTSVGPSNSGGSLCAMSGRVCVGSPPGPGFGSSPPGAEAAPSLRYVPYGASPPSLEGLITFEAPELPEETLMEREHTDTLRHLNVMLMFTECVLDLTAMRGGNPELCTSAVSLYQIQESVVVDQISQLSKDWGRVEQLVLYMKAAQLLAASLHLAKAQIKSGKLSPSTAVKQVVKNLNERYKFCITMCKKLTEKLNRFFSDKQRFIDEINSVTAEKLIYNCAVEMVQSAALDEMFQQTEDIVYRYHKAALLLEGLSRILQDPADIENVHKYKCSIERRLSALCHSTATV

[13] = target: Muscle, skeletal receptor tyrosine-protein kinase (Homo sapiens) (UniProt O15146); settings: Compound concentration 1000.0 nM
[14] = target: Serine/threonine-protein kinase WNK2 (Homo sapiens) (UniProt Q9Y3S1); settings: Compound concentration 1000.0 nM
[15] = target: Leukocyte tyrosine kinase receptor (Homo sapiens) (UniProt P29376); settings: Compound concentration 1000.0 nM
[16] = target: Glycogen synthase kinase-3 alpha (Homo sapiens) (UniProt P49840); settings: Compound concentration 1000.0 nM
Chain of Glycogen synthase kinase-3 alpha (Homo sapiens) (P49840 2-483 limits assumed): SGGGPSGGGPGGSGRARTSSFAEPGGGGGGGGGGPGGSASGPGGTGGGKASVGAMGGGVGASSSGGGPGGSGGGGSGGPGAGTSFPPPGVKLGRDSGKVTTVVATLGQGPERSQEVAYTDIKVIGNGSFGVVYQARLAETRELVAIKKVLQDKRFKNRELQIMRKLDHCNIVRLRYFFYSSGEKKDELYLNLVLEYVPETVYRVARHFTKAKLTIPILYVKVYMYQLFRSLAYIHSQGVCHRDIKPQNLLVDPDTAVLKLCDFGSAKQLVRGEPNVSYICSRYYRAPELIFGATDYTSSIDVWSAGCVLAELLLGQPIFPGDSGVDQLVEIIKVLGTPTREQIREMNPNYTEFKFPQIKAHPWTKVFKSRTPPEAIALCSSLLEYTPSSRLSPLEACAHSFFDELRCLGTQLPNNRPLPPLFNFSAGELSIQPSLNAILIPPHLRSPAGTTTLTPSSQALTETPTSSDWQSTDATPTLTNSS

[17] = tested on: Tyrosine-protein kinase ABL1 (Homo sapiens), P00519 [M351T]; settings: Compound concentration 1000.0 nM
[18] = target: Serine/threonine-protein kinase 4 (Homo sapiens) (UniProt Q13043); settings: Compound concentration 1000.0 nM
[19] = target: Dual specificity protein kinase CLK3 (Homo sapiens) (UniProt P49761); settings: Compound concentration 1000.0 nM
[20] = target: Cyclin-dependent kinase 18 (Homo sapiens) (UniProt Q07002); settings: Compound concentration 1000.0 nM
[21] = tested on: Receptor-type tyrosine-protein kinase FLT3 (Homo sapiens), P36888 [R834Q]; settings: Compound concentration 1000.0 nM
[22] = tested on: Receptor-type tyrosine-protein kinase FLT3 (Homo sapiens), P36888 [D835V]; settings: Compound concentration 1000.0 nM
[23] = target: Vascular endothelial growth factor receptor 2 (Homo sapiens) (UniProt P35968); settings: Compound concentration 1000.0 nM
Chain of Vascular endothelial growth factor receptor 2 (Homo sapiens) (P35968 whole entry): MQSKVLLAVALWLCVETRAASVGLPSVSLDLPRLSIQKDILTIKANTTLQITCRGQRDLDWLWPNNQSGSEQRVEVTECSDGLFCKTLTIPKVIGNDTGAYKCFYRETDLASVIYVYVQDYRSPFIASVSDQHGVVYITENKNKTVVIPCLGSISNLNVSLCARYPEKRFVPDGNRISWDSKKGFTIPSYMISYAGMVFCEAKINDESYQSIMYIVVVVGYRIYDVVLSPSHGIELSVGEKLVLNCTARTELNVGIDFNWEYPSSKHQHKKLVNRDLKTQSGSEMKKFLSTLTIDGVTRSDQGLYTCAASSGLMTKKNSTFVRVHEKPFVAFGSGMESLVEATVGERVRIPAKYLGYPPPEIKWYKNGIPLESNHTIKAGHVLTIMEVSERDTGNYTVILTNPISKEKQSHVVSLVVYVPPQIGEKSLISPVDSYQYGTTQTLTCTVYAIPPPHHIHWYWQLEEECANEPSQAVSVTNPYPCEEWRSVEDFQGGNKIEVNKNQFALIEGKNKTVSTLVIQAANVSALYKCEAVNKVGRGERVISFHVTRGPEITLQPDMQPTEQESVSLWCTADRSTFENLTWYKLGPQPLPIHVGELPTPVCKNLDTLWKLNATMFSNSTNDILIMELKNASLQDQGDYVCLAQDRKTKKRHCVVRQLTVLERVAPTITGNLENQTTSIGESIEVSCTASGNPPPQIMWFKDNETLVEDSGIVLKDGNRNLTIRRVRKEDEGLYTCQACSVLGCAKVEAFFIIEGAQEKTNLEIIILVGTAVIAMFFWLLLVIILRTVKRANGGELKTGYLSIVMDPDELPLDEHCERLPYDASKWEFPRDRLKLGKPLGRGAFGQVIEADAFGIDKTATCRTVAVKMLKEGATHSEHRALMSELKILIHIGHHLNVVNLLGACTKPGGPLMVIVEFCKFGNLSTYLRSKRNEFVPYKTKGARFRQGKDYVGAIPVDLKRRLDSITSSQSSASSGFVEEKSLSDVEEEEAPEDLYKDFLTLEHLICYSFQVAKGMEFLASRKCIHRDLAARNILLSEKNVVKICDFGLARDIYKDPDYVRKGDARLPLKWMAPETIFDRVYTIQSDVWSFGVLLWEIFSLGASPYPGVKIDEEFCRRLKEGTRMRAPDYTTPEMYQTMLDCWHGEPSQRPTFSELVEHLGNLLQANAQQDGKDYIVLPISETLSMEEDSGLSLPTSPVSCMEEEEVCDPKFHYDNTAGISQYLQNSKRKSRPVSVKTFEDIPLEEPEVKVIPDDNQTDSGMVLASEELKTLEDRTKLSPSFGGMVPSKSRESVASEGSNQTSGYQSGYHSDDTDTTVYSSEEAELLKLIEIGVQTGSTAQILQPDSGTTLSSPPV

[24] = target: Bone morphogenetic protein receptor type-1A (Homo sapiens) (UniProt P36894); settings: Compound concentration 1000.0 nM
[25] = target: Serine/threonine-protein kinase 16 (Homo sapiens) (UniProt O75716); settings: Compound concentration 1000.0 nM
[26] = target: Mitogen-activated protein kinase kinase kinase 2 (Homo sapiens) (UniProt Q9Y2U5); settings: Compound concentration 1000.0 nM
[27] = target: Dual specificity mitogen-activated protein kinase kinase 7 (Homo sapiens) (UniProt O14733); settings: Compound concentration 1000.0 nM
Chain of Dual specificity mitogen-activated protein kinase kinase 7 (Homo sapiens) (O14733 whole entry): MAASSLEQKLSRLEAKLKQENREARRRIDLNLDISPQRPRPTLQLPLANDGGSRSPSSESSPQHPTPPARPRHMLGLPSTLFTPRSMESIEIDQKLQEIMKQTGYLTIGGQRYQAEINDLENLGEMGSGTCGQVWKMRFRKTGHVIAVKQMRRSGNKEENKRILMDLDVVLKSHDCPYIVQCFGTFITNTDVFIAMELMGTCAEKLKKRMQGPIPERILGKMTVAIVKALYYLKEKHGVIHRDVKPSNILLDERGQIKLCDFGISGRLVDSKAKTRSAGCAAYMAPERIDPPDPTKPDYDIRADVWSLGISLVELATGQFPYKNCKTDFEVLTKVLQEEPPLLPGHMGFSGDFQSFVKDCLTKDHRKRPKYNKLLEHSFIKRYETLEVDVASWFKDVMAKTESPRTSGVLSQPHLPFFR

[28] = tested on: Tyrosine-protein kinase ABL1 (Homo sapiens), P00519 [Y253F]; settings: Compound concentration 1000.0 nM
[29] = target: Mitogen-activated protein kinase kinase kinase 7 (Homo sapiens) (UniProt O43318); settings: Compound concentration 1000.0 nM
Chain of Mitogen-activated protein kinase kinase kinase 7 (Homo sapiens) (O43318 whole entry): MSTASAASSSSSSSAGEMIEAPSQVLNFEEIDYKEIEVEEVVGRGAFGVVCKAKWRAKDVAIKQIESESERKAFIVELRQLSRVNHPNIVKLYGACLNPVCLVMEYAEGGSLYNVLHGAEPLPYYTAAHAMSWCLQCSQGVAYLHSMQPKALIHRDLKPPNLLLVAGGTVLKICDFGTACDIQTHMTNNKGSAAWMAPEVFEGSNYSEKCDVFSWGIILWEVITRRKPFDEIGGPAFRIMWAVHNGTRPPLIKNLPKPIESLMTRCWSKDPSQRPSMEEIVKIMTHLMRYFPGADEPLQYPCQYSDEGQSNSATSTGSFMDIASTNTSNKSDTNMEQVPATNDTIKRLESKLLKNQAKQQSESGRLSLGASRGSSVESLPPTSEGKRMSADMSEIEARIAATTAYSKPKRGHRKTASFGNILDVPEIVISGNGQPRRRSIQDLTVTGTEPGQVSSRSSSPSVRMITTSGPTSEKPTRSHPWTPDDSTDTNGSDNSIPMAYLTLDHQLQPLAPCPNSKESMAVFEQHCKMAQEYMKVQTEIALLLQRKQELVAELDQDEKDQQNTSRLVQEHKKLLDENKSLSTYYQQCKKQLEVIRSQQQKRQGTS

[30] = target: Tyrosine-protein kinase Fyn (Homo sapiens) (UniProt P06241); settings: Compound concentration 1000.0 nM
Chain of Tyrosine-protein kinase Fyn (Homo sapiens) (P06241 2-537 limits assumed): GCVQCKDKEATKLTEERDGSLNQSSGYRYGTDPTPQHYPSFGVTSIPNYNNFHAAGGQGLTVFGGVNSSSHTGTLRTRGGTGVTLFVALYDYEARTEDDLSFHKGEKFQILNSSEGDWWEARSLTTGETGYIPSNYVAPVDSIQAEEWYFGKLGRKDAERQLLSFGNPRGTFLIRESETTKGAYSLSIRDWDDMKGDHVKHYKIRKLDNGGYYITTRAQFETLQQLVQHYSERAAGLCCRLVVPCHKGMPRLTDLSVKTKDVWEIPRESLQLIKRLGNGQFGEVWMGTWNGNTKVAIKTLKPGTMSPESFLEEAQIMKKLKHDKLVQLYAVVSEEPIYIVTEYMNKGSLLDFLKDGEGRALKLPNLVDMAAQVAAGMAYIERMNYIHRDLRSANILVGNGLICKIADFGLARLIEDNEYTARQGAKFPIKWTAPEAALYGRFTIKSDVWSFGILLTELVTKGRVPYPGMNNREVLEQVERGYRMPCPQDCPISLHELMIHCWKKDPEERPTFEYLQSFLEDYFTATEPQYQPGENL

[31] = tested on: Epidermal growth factor receptor (Homo sapiens), P00533 [L858R]; settings: Compound concentration 1000.0 nM
[32] = target: T1, Muscarinic acetylcholine receptor M5 (Homo sapiens) (UniProt P08912); settings: Compound concentration 10.0 uM
T1 sequence (whole entry): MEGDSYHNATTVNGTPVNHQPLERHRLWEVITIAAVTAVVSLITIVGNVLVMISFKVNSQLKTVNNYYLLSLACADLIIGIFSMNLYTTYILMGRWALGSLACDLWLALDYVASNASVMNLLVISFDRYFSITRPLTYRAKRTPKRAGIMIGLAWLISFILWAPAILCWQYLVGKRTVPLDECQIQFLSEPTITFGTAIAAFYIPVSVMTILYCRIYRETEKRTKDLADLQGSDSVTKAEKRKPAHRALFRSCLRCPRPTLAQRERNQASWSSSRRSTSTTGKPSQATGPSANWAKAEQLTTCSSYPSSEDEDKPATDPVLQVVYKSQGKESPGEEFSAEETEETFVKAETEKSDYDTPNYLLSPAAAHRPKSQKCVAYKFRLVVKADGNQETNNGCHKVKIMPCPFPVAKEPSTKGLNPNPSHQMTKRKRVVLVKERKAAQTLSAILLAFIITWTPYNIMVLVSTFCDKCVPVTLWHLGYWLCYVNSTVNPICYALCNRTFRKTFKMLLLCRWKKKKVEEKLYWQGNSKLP

[33] = target: Dual specificity protein kinase TTK (Homo sapiens) (UniProt P33981); settings: Compound concentration 1000.0 nM
[34] = tested on: Receptor-type tyrosine-protein kinase FLT3 (Homo sapiens), P36888 [K663Q]; settings: Compound concentration 1000.0 nM
[35] = target: Serine/threonine-protein kinase PAK 3 (Homo sapiens) (UniProt O75914); settings: Compound concentration 1000.0 nM
Chain of Serine/threonine-protein kinase PAK 3 (Homo sapiens) (O75914 whole entry, looked up): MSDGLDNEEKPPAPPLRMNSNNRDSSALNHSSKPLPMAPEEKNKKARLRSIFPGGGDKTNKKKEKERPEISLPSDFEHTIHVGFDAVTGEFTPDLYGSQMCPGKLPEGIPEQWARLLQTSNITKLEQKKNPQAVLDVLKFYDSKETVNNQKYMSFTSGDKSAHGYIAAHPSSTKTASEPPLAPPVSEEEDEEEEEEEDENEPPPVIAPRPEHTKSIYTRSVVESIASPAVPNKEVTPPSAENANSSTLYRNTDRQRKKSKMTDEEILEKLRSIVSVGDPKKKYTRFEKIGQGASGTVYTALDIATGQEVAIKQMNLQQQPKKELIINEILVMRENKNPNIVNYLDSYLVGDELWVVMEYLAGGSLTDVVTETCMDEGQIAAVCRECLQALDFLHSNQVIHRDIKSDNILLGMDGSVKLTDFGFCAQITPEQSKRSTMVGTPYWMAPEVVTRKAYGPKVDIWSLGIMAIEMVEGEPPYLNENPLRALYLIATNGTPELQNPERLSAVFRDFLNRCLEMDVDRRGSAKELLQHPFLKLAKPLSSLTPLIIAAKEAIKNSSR

[36] = target: Wee1-like protein kinase (Homo sapiens) (UniProt P30291); settings: Compound concentration 1000.0 nM
[37] = target: G protein-coupled receptor kinase 4 (Homo sapiens) (UniProt P32298); settings: Compound concentration 1000.0 nM
[38] = target: Casein kinase I isoform gamma-2 (Homo sapiens) (UniProt P78368); settings: Compound concentration 1000.0 nM

Row | Compound | residual activity [1] | residual activity [2] | residual activity [3] | residual activity [4] | residual activity [5] | residual activity [6] | residual activity [7] | inhibition [8] | residual activity [9] | residual activity [10] | residual activity [11] | residual activity [12] | residual activity [13] | residual activity [14] | residual activity [15] | residual activity [16] | residual activity [17] | residual activity [18] | residual activity [19] | residual activity [20] | other results
1 | N#CC1(c2ccccn2)CCN(Cc2cc(C(=O)O)c(=O)n3ccccc23)CC1 [MSD-M1PAM] | 85% | 100% | 100% | 100% | 100% | 100% | 95% | 18.5% | 96% | 87% | 100% | 93% | 96% | 79% | 100% | 100% | 57% | 100% | 100% | 100% | residual activity [21]: 100%; residual activity [22]: 100%; residual activity [23]: 79%; residual activity [24]: 97%; residual activity [25]: 100%; residual activity [26]: 76%; residual activity [27]: 95%; residual activity [28]: 72%; residual activity [29]: 90%; residual activity [30]: 99%; residual activity [31]: 86%; inhibition [32]: 4.74%; residual activity [33]: 88%; residual activity [34]: 100%; residual activity [35]: 100%; residual activity [36]: 99%; residual activity [37]: 68%; residual activity [38]: 91%
2 | N#CC1(c2ccccn2)CCN(Cc2cc(C(=O)N3CCCC3)c(=O)n3ccccc23)CC1 | 83% | 91% | 100% | 100% | 92% | 100% | 100% | 35% | 74% | 100% | 100% | 92% | 90% | 100% | 90% | 72% | 100% | 88% | 99% | 100% | residual activity [21]: 100%; residual activity [22]: 98%; residual activity [23]: 92%; residual activity [24]: 74%; residual activity [25]: 100%; residual activity [26]: 100%; residual activity [27]: 100%; residual activity [28]: 92%; residual activity [29]: 99%; residual activity [30]: 83%; residual activity [31]: 87%; inhibition [32]: 0.56%; residual activity [33]: 98%; residual activity [34]: 30%; residual activity [35]: 100%; residual activity [36]: 74%; residual activity [37]: 86%; residual activity [38]: 76%
